This note sets out measurements from US20140187423A1, “Fungicidal substituted 1--1H-[1,2,4]triazole compounds” (BASF SE, priority 2011, published 2014).

The subject of one assay is Phakopsora pachyrhizi. The experiment in a line: Green house G1: protective control of soy bean rust on soy beans caused by Phakopsora pachyrhizi (Phakpa P2). Type of assay: in vivo. The note with it: soy bean seedlings sprayed 2 days before inoculation, % diseased leaf area, untreated control 70. The procedure:
The spray solutions were prepared in several steps:
The stock solution were prepared: a mixture of acetone and/or dimethylsulfoxide and the wetting agent/emulsifier Wettol, which is based on ethoxylated alkylphenoles, in a relation (volume) solvent-emulsifier of 99 to 1 was added to 25 mg of the compound to give a total of 5 ml. Water was then added to total volume of 100 ml. This stock solution was diluted with the described solvent-emulsifier-water mixture to the given concentration.
G1. Protective control of soy bean rust on soy beans caused by Phakopsora pachyrhizi (Phakpa P2)
Leaves of pot-grown soy bean seedlings were sprayed to run-off with an aqueous suspension, containing the concentration of active ingredient or their mixture as described below. The plants were allowed to air-dry. The trial plants were cultivated for 2 days in a greenhouse chamber at 23-27° C. and a relative humidity between 60 and 80%. Then the plants were inoculated with spores of Phakopsora pachyrhizi. To ensure the success the artificial inoculation, the plants were transferred to a humid chamber with a relative humidity of about 95% and 20 to 24° C. for 24 h. The trial plants were cultivated for fourteen days in a greenhouse chamber at 23-27° C. and a relative humidity between 60 and 80%. The extent of fungal attack on the leaves was visually assessed as % diseased leaf area.

Another assay has as its system Septoria tritici. Nature of the assay: Green house G2: preventative control of leaf blotch on wheat caused by Septoria tritici (Septtr P7). Type of assay: in vivo. The note with it: wheat seedlings sprayed 7 days before inoculation, % diseased leaf area, untreated control 70. The procedure:
The spray solutions were prepared in several steps: The stock solution were prepared: a mixture of acetone and/or dimethylsulfoxide and the wetting agent/emulsifier Wettol, which is based on ethoxylated alkylphenoles, in a relation (volume) solvent-emulsifier of 99 to 1 was added to 25 mg of the compound to give a total of 5 ml. Water was then added to total volume of 100 ml. This stock solution was diluted with the described solvent-emulsifier-water mixture to the given concentration. G2. Preventative control of leaf blotch on wheat caused by Septoria tritici (Septtr P7) Leaves of pot-grown wheat seedling were sprayed to run-off with an aqueous suspension of the active compound or their mixture, prepared as described. The plants were allowed to air-dry. Seven days later the plants were inoculated with an aqueous spore suspension of Septoria tritici. Then the trial plants were immediately transferred to a humid chamber at 18-22° C. and a relative humidity close to 100%. After 4 days the plants were transferred to a chamber with 18-22° C. and a relative humidity close to 70%. After 4 weeks the extent of fungal attack on the leaves was visually assessed as % diseased leaf area.

With `CCOC(Cn1cncn1)c1ccc(Oc2ccc(Cl)cc2)cc1Cl` (centres unmarked) [prior art compound], the “Disease (%) at 16 ppm Phakpa P2” value in the assay on Phakopsora pachyrhizi is 70%. The “Disease (%) at 16 ppm Septtr P7” value in the assay with Septoria tritici is listed as 50%.
